Patent US6566554B1, “Aminobenzophenones as inhibitors of IL-1β and TNF-α” (Leo Pharmaceutical Products Ltd. a/s (Lovens Kemiske Fabrik …, priority 1999, dated 2003)

Key:
Assay type in all cases: cell-based
[1] = test system: Human polymorphonuclear (PMN) granulocytes; test: Inhibition of PMN superoxide secretion (ferricytochrome C reduction, TNF-α primed, fMLP stimulated); conditions: fMLP 10^−7 M, read-out: The median inhibition concentration (IC50, nM) of PMN-superoxide
Procedure: The compounds of the present invention also show similar activities in the ability to inhibit PMN (polymorphonuclear) superoxide secretion which is also indicative of potentially useful anti-inflammatory drugs. The compounds were tested using the following procedure. Human polymorphonuclear (PMN) granulocytes were isolated from human blood by dextran sedimentation, Lymphoprep® fractionation, and hypotonic lysis of contaminating erythrocytes. Superoxide anion generation was measured as the superoxide dismutase inhabitable reduction of ferricytochrome C (Madhu, S. B. et al, Inflammation, 16, 241, (1992)). The cells were suspended in Hank's balanced salt solution, and incubated for 10 minutes at 37° C. with test compounds. The cells were primed by the addition of TNF-α (3 ng/ml final concentration) for 10 minutes, and then ferricytochrome C, (final concentration 750 μg/ml), bovine serum albumin (BSA, final concentration 1 mg/ml) and formyl-methionyl-leucyl-phenylalanine (fMLP, final concentration 10^−7 M) were added for 3 minutes. The cells were chilled on ice, and were spun down. The optical densities in the cell-free supernatant was measured in a spectrophotometer. The median inhibitory concentration (IC50) of the compounds was calculated.

[2] = test system: TNF-α secretion; test: Inhibition of TNF-α secretion in LPS stimulated peripheral blood mononuclear cells; conditions: PBMC; LPS stimulated human peripheral blood mononuclear cells, 18 hours, ELISA; read-out: The median inhibition concentration (IC50, nM) of TNF-α
Procedure: (§1) To study the effect of the compound of the present invention in vitro the inhibition of the IL-1β and TNF-α secretion was measured using the following procedure:
(§2) Cytokine production was measured in the media from lipopolysaccharide (LPS) stimulated peripheral blood mononuclear cells. The mononuclear cells were isolated from human peripheral blood by Lymphoprep® (Nycomed, Norway) fractionation and suspended in RPMI 1640 (growth medium) with foetal calv serum (FCS, 2%), at a concentration of 5×10^5 cells/ml. The cells were incubated in 24-well tissue culture plates in 1 ml aliquots. Test compounds were dissolved in dimethylsulfoxide (DMSO, 10 mM) and were diluted with the medium. Compounds were added to the cells for 30 minutes, then LPS ([…] final concentration) was added. The plates were incubated for 18 hours, and the concentration of IL-1β and TNF-α in the medium was determined by enzyme-linked immunosorbent assays. The median inhibitory concentrations (IC50) of the compounds were calculated.

[3] = test system: IL-1β secretion; test: Inhibition of IL-1β secretion in LPS stimulated peripheral blood mononuclear cells; conditions: PBMC; LPS stimulated human peripheral blood mononuclear cells, 18 hours, ELISA; read-out: The median inhibition concentration (IC50, nM) of IL-1β
Procedure: as §1, §2

Row | SMILES | IC50 [1] | IC50 [2] | IC50 [3]
1 | CCCCCCCC(=O)Nc1ccccc1Nc1ccc(C(=O)c2ccccc2C)c(Cl)c1 [Compound 102, 2′-[3-Chloro-4-(2-methylbenzoyl)-phenylamino]octananilide] | 5 nM | 6.3 nM | 6.3 nM
2 | Cc1ccccc1C(=O)c1ccc(Nc2ccccc2NC(=O)CCC(=O)O)cc1Cl [Compound 101, N-[2-[3-Chloro-4-(2-methylbenzoyl)-phenylamino]phenyl]-succinamic Acid] | 63 nM | 25 nM | 200 nM
